Assay results taken from PubChem BioAssay AID1648 (Sanford-Burnham Center for Chemical Genomics, 2009).
Active and inactive are the calls of the source. How the calls were made is not given here.

target: Serine/threonine-protein kinase mTOR (Homo sapiens) (UniProt P42345); assay: mTOR FRB domain ligand binding – biophysical, NMR (AID 1648); details: NMR binding to FRB domain, chemical shift
Sequence (P42345 2015-2114): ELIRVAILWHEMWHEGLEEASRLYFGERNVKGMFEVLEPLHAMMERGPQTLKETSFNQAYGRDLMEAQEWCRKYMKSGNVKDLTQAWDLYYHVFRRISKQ

SMILES	Kd
COc1ccccc1C(=O)Nc1ccccn1	> 4 mM (inactive)
NC(=O)CSc1ccc2nnc(-c3cccs3)n2n1	> 4 mM (inactive)
Cc1nc2c(=O)[nH]c3ccccc3c2o1	> 4 mM (inactive)
N#Cc1nc(-c2ccccc2Cl)oc1N1CCOCC1	> 4 mM (inactive)
CCC(=O)Nc1cc(C(C)C)c(O)cc1C	> 4 mM (inactive)
CN1CCC(N(C)C2CCN(C)CC2)CC1	> 4 mM (inactive)
CSc1ccc(C2NC(=O)CCC2[N+](=O)[O-])cc1 (stereo not given)	> 4 mM (inactive)
Nc1cccc(-c2cnco2)c1	> 4 mM (inactive)
O=C(/C=C/c1ccco1)NC1=NCCS1	> 4 mM (inactive)
O=C(Nc1ccncc1)Nc1ccc(F)cc1F	> 4 mM (inactive)
Cc1noc(C)c1C(=O)N1CCc2ccccc2C1	> 4 mM (inactive)
CC(C)(C)Cc1nc(-c2ccccn2)no1	> 4 mM (inactive)
O=C(/C=C/c1ccccc1)c1ccc(O[C@@H]2O[C@H](CO)[C@@H](O)[C@H](O)[C@H]2O)cc1O	> 4 mM (inactive)
NC(=O)c1ccsc1NC(=O)c1ccccc1[N+](=O)[O-]	> 4 mM (inactive)
CC(=O)N1CCN(c2ccc(O)cc2)CC1	> 4 mM (inactive)
O=C(CSC1=NCCS1)N1CCc2ccccc21	> 4 mM (inactive)
N#Cc1sc2nc3c(c(-c4cccnc4)c2c1N)CCC3	> 4 mM (inactive)
COc1ccc(-c2nnsc2N)cc1	> 4 mM (inactive)
Cc1cc(C)n(-c2ccc(Cl)nn2)n1	> 4 mM (inactive)
Cc1ccc2cc(N)ccc2n1	> 4 mM (inactive)

SMILES	Kd
NC(=O)Cn1nc(-c2ccc(F)cc2)ccc1=O	> 4 mM (inactive)
COc1ccc(C(=O)NNC(=S)NC(C)=O)cc1	> 4 mM (inactive)
NCc1cccc(-n2cccc2)c1	> 4 mM (inactive)
CSc1nnc2[nH]c(=O)cc(N)n12	> 4 mM (inactive)
O=C(c1ccc(F)cc1)C1CCNCC1	> 4 mM (inactive)
COc1cc2[nH]c(=S)n(C)c(=O)c2cc1OC	> 4 mM (inactive)
CSc1nc(C)cc(-n2ccc(=O)[nH]c2=O)n1	> 4 mM (inactive)
C[C@H](CCC(=O)O)[C@H]1CCC2C3C(CC[C@@]21C)[C@@]1(C)CC[C@@H](O)C[C@H]1C[C@H]3O (stereo not given in full)	> 4 mM (inactive)
CSc1nc(-c2ccccc2)ccc1C(N)=O	> 4 mM (inactive)
CSc1ccn(CCC(=O)O)c(=O)n1	> 4 mM (inactive)
O=C(CSc1ccc(Cl)cc1)N1CCOCC1	> 4 mM (inactive)
NC12CC3CC(C1)CC(O)(C3)C2	> 4 mM (inactive)
Cn1c(=O)c2c([nH]c(=O)n2C)n(C)c1=O	> 4 mM (inactive)
O=S(=O)(CCN1CCCC1)c1ccccc1	> 4 mM (inactive)
Oc1ccccc1-c1nnco1	> 4 mM (inactive)
O=c1oc2ccccc2cc1O	> 4 mM (inactive)
NC(CSCSCC(N)C(=O)O)C(=O)O (stereo not given)	> 4 mM (inactive)
Nc1ccccc1-n1cccn1	> 4 mM (inactive)
Cc1cccc(NC(=O)c2ccc(=O)[nH]n2)c1	> 4 mM (inactive)
COc1cccc(-c2csc(NC(C)=O)n2)c1	> 4 mM (inactive)

SMILES	Kd
CCCCCCCCCCCCCCC(C(=O)O)C(O)(CC(=O)OC)C(=O)O (stereo not given)	> 4 mM (inactive)
Cc1nc2ccc(NC(=O)N3CCSCC3)cc2s1	> 4 mM (inactive)
NCCCCN	> 4 mM (inactive)
COc1ccc(/C=C/c2cc(O)cc(O)c2)cc1	> 4 mM (inactive)
O=C(NCc1ccco1)c1cccc(F)c1	> 4 mM (inactive)
Nc1ccc2c(c1)OCO2	> 4 mM (inactive)
Cn1cnnc1SCCCNC(=O)Nc1ncccn1	> 4 mM (inactive)
O=C(O)CCCCCCCC(=O)O	> 4 mM (inactive)
O=C1NC(=O)/C(=C\c2ccncc2)S1	> 4 mM (inactive)
COc1cccc(-c2nc(-c3ccccn3)no2)c1OC	> 4 mM (inactive)
Nc1ccc(Cc2ccc(N)cc2)cc1	> 4 mM (inactive)
O=c1[nH]c(=O)n(-c2ccc(F)cc2)c(O)c1/C=C1/C=CC=N1	> 4 mM (inactive)
O=C1NC(=Nc2ccc(O)cc2)S/C1=C/c1ccco1	> 4 mM (inactive)
C[C@]12C=CC(=O)C=C1CCC1C2CC[C@]2(C)C(=O)CCC12 (stereo not given in full)	> 4 mM (inactive)
CSc1ccc(/C=N/n2c(C)nnc2C)cc1	> 4 mM (inactive)
COC(=O)c1cc(-c2c[nH]c3ccccc23)n[nH]1	> 4 mM (inactive)
CN(C)S(=O)(=O)N1CCc2ccccc21	> 4 mM (inactive)
O=C(Nc1cccc2ncccc12)c1cccnc1	> 4 mM (inactive)
Nc1nc2ncc(CNc3ccc(C(=O)N[C@@H](CCC(=O)O)C(=O)O)cc3)nc2c(=O)[nH]1	> 4 mM (inactive)
C=CCNC(=O)c1nn2cccnc2c1Cl	> 4 mM (inactive)
